From ChEMBL document CHEMBL1143338, “Design of beta-hairpin peptides for modulation of cell adhesion by beta-turn constraint” (J Med Chem, 2009) come the findings set out here.

Common to all, as to assay type: cell-based
A short description of series [1]: Cytotoxicity against human Caco-2 cells assessed as cell viability at 180 uM after 2 hrs by MTT assay. As to conditions: read-out: Activity. In general terms: Formazan colour is commonly taken as a measure of viable cells.
A further series deals with Jurkat. Put plainly: Inhibition of CD2-CD58 interaction assessed as inhibition of CD2 expressing human Jurkat T cell to CD58 expressing sheep RBC adhesion-associated E-rosette formation at 180 uM after 45 mins by microplate fluorescence analysis.
Series [2] concerns the target T1, T-cell surface antigen CD2 (Homo sapiens) (UniProt P06729).
T1 sequence (whole entry): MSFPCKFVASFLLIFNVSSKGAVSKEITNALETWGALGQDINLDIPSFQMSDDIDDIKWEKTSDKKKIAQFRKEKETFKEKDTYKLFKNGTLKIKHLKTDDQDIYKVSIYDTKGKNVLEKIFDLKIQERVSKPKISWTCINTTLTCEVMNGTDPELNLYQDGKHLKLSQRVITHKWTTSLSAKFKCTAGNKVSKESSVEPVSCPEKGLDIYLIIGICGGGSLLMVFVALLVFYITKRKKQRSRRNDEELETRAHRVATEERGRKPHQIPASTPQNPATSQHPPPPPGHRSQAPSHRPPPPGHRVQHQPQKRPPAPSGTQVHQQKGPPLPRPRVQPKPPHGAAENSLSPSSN
Kind of series: Inhibition of CD2-CD58 interaction assessed as inhibition of CD2 expressing human Jurkat T cell adhesion to CD58 expressing human Caco-2 cells at 90 uM after 45 mins by microplate fluorescence analysis.

The target in series [3] is T1, T-cell surface antigen CD2 (Homo sapiens). Kind of series: Inhibition of CD2-CD58 interaction assessed as inhibition of CD2 expressing human Jurkat T cell adhesion to CD58 expressing human Caco-2 cells after 45 mins by microplate fluorescence analysis relative to control.
The target in series [4] is T2, Lymphocyte function-associated antigen 3 (Homo sapiens) (UniProt P19256).
T2 sequence (whole entry): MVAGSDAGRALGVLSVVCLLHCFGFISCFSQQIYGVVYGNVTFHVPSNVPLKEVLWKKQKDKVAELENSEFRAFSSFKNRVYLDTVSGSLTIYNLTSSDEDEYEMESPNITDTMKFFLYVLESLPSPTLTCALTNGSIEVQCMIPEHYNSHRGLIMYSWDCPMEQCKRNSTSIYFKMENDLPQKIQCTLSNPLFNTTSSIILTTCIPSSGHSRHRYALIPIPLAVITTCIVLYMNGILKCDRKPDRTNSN
Kind of series: Inhibition of antiCD58-FITC binding to CD58 in human Caco-2 cells at 180 uM after 1 hr by fluorescence analysis relative to control.

By inhibition is commonly meant the share of the control response that was lost under treatment.

Each structure is given as a SMILES string. Positions of bridges follow the written chain, without caps; N, C: chain ends. Residues, ends and D or L forms follow the SMILES beside them. Bounds are passed on as bounds.

For `CC[C@H](C)[C@@H]1NC(=O)[C@H](CO)NC(=O)[C@@H](N)C(C)(C)SSC[C@@H](C(=O)O)NC(=O)[C@@H](CCCCN)NC(=O)[C@H]([C@@H](C)CC)NC(=O)[C@H](CC(=O)O)NC(=O)[C@H](CC(=O)O)NC(=O)CNC(=O)[C@@H]2CCCN2C(=O)[C@H](CC(=O)O)NC(=O)[C@H](Cc2ccc(O)cc2)NC1=O`, the viability at 2 h, 180 µM in series [1] is > 80%. Moreover, the figures for the inhibition (in the series on Jurkat; in series [2]) were 20% and 30%, respectively.

Take `CC[C@H](C)[C@@H]1NC(=O)[C@H](CC(=O)O)NC(=O)[C@H](CC(=O)O)NC(=O)CNC(=O)[C@@H]2CCCN2C(=O)[C@H](CC(=O)O)NC(=O)[C@H](Cc2ccc(O)cc2)NC(=O)[C@H]([C@@H](C)CC)NC(=O)[C@H](CO)NC(=O)[C@@H](N)CCC(=O)NCCCC[C@@H](C(=O)O)NC1=O` (H-ESIYDPGDDIK-OH; lactam 1-11): the viability at 2 h, 180 µM in series [1] is > 80%. The inhibition in the series on Jurkat was found to be 60%; in series [2], 80%; in series [4], 45%. The Activity result in series [3] was “Dose-dependent effect”.

For `CC[C@H](C)[C@@H]1NC(=O)[C@H](CC(=O)O)NC(=O)[C@H](CC(=O)O)NC(=O)CNC(=O)[C@@H]2CCCN2C(=O)[C@H](CC(=O)O)NC(=O)[C@H](Cc2ccc(O)cc2)NC(=O)[C@H]([C@@H](C)CC)NC(=O)[C@H](CCC(=O)O)NC(=O)[C@H](CCCCN)NC1=O`, in series [1], the viability at 2 h, 180 µM was > 80%.

With `CC[C@H](C)[C@@H]1NC(=O)[C@H](CC(=O)O)NC(=O)[C@H](CC(=O)O)NC(=O)CNC(=O)[C@@H]2CCCN2C(=O)[C@H](CC(=O)O)NC(=O)[C@H](Cc2ccc(O)cc2)NC(=O)[C@H]([C@@H](C)CC)NC(=O)[C@@H](N)CCC(=O)NCCCC[C@@H](C(=O)O)NC1=O` (H-EIYDPGDDIK-OH; lactam 1-10), in series [1], the viability at 2 h, 180 µM was > 80%. The inhibition in the series on Jurkat amounted to 50%; in series [2], 80%. Besides, in series [3], the Activity result was “Dose-dependent effect”.

Turning to `CC[C@H](C)[C@@H]1NC(=O)[C@H](CC(=O)O)NC(=O)[C@@H](CC(=O)O)NC(=O)CNC(=O)[C@@H]2CCCN2C(=O)[C@H](CC(=O)O)NC(=O)[C@H](Cc2ccc(O)cc2)NC(=O)[C@H]([C@@H](C)CC)NC(=O)[C@H](CCC(=O)O)NC(=O)[C@H](CCCCN)NC1=O`, the inhibition with Jurkat was found to be 60%; in series [2], 80%. Also, in series [3], the Activity result was “Dose-dependent effect”.
